What all share (test): NCI tumour cell line growth inhibition, 48 h
Assay [1] concerns HCT-15 colon.
Assay [2] has as its system SK-OV-3 ovarian.
The test system of assay [3] is SR leukemia.
Assay [4] relates to UACC-257 melanoma.
Assay [5] concerns A498 renal.
The test system of assay [6] is EKVX NSCLC.
Assay [7] relates to SW-620 colon.
Assay [8] has as its system SK-MEL-5 melanoma.
The test system of assay [9] is BT-549 breast.
Assay [10] deals with MCF7 breast.

Molecules are shown by their SMILES. Values joined by “and” are separate entries in the source; they are usually repeats but may differ in a detail not shown here. Equal values may be shown once.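 1) Cells in 96-well plates. 2) Compound, 48 h, 5 concentrations. 3) Linear interpolation between surrounding doses. 4) Unreached endpoint = highest concentration. GI50 = concentration required for 50% inhibition of growth. TGI is the concentration that stops growth completely.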

As for `CC(=O)OCC1OC(n2c(=S)n(-c3ccccc3)c(=O)c3cc(Br)cc(Br)c32)C(OC(C)=O)C(OC(C)=O)C1OC(C)=O` (stereo unspecified), the TGI in assay [1], in assay [2], in assay [3], in [4], in assay [5] and in assay [6] was above 100 µM in each case. Further, the TGI in assay [7] and in assay [8] was above 100 µM in each case. The GI50 was 45.1 µM and > 100 µM in assay [2]; above 100 µM in assay [3]; 46.6 µM and > 100 µM in assay [4].

As to `O=C(/C=C(\[O-])c1ccccc1)CCCCCCC(=O)/C=C(\[O-])c1ccccc1.O=C(/C=C(\[O-])c1ccccc1)CCCCCCC(=O)/C=C(\[O-])c1ccccc1.O=C(/C=C(\[O-])c1ccccc1)CCCCCCC(=O)/C=C(\[O-])c1ccccc1.[Nd+3].[Nd+3]`, the GI50 in [1], in [2], in assay [4], in [5], in assay [6] and in [7] was above 50 µM throughout. Further, the GI50 in [8] was above 50 µM. Further, the TGI in assay [1], in assay [2], in [4], in [5], in assay [6] and in [7] was above 50 µM throughout. The molecule also displayed a TGI in assay [8] above 50 µM.

Consider `Cn1ccnc1C(=O)/C=C/c1ccc(C(=O)Nc2c(F)c(F)c(F)c(F)c2F)cc1`, for which the GI50 was 1.11 µM in assay [1]; 3.24 µM in assay [2]; 0.339 µM in assay [3]; 3.1 µM in assay [4]; 1.36 µM in assay [5]; 1.43 µM in assay [9]. The GI50 in assay [6] was 2.36 µM; in assay [7] it was 1.19 µM; in assay [8], 1.79 µM. Also, the TGI was 4.3 µM in assay [1]; 10.1 µM in assay [2]; 2.26 µM in [3]; 10.4 µM in assay [4]; 3.16 µM in assay [5]; 2.75 µM in [9]. The values for the TGI in assay [6], in assay [7] and in assay [8] were 5.85 µM, 2.86 µM and 3.28 µM, respectively.

For `Nc1nc(=S)[nH]c(C(=O)Nc2nccs2)c1-c1ccccc1`, the TGI in assay [1], in assay [2], in assay [3], in assay [4], in assay [5] and in assay [6] was above 100 µM in each case. The TGI in assay [7] and in assay [8] was above 100 µM in each case.

In the case of `CN(C)c1ccc(O[Si](Oc2ccc(N(C)C)cc2)(Oc2ccc(N(C)C)cc2)Oc2ccc(N(C)C)cc2)cc1`, the TGI in assay [2], in assay [3], in assay [4], in assay [5], in assay [6] and in assay [7] was above 100 µM each time. The molecule further yielded a TGI in assay [8] above 100 µM.

Take `CN(C)c1ccc(C2CC(C)(O)Oc3cc4c(cc32)OCO4)cc1` (stereo unspecified): the TGI in assay [1], in [2], in assay [10], in assay [3], in assay [4] and in assay [6] was above 100 µM each time. Besides, the TGI in [7] and in assay [8] was above 100 µM in each case.

Consider `Clc1ccc2c(NCCCN3CCN(c4nc(N5CCOCC5)nc5ccccc45)CC3)ccnc2c1`, for which the GI50 is 1.35 µM in assay [3]; 1.77 µM in [4]; 1.57 µM in assay [5]; 1.64 µM in assay [9]; 1.62 µM in assay [7]; 1.73 µM in assay [8]. In addition, the TGI in assay [3] was determined as 4.57 µM; in assay [4] it was 3.42 µM; in assay [5], 3.11 µM; in assay [9] it was 3.08 µM; in assay [7] it was 3.5 µM; in assay [8] it was 3.12 µM.

`O=C(N/N=C/c1ccc(F)cc1)c1ccc(C(F)(F)F)nc1Nc1cccc(C(F)(F)F)c1`: the GI50 is 0.351 µM in assay [1]; 1.17 µM in [2]; 1.47 µM in assay [10]; 0.426 µM in assay [3]; 2.23 µM in assay [4]; 1.59 µM in assay [5]. In addition, the GI50 in assay [6] is 0.713 µM; in [7], 0.959 µM; in assay [8], 1.62 µM. Further, the TGI worked out at 1.87 µM in [1]; 4.56 µM in [2]; 5.78 µM in assay [10]; 2.4 µM in assay [3]; 6.72 µM in [4]; 4.65 µM in assay [5]. For the same molecule, the TGI was determined as 4.64 µM in assay [6], 8.44 µM in assay [7] and 4.48 µM in assay [8].

Turning to `COC(=O)c1sc(=NC(=S)N2CCCCC2)sc1C(=O)OC`, the TGI in assay [1], in assay [2], in assay [3], in assay [4], in assay [5] and in assay [7] was above 100 µM in each case. In [8], this molecule showed a TGI above 100 µM.

As for `NNC(=O)N/N=C1\CN(c2ccc(Cl)cc2Cl)C(=O)C(=O)C1c1nc2ccccc2o1` (stereo unspecified), the TGI in [2], in assay [3], in assay [4], in assay [5], in assay [6] and in [7] was above 100 µM each time. Besides, in assay [8], the TGI is above 100 µM.

As for `COc1ccc(C(=O)O/N=C2/CCCCC2CN(C)C)cc1` (stereo unspecified), the TGI in [1], in [2], in [3], in [4], in assay [5] and in assay [6] was above 100 µM in each case. The TGI in assay [7] and in assay [8] was above 100 µM in each case.

`CC1CC(C)C(C(O)CC2CC(=O)N(c3ccccc3)C(=O)C2)C(O)C1` (stereo unspecified): the TGI in assay [2], in [3], in [4], in assay [5], in assay [6] and in assay [7] was above 100 µM throughout.

Turning to `O=C(CC1=Nc2nnc(-c3nnc4n3C(=O)C(CC(=O)C3CC3)=N4)n2C1=O)C1CC1`, the TGI in assay [1], in [2], in assay [4], in assay [5], in assay [7] and in assay [8] was above 100 µM each time.

For the molecule `COc1cc2cc3c(c(O)c2c(O)c1-c1c(OC)cc2cc4c(c(O)c2c1O)C(=O)O[C@H](C)C4)C(=O)O[C@H](C)C3`, the GI50 in [1] is 25.6 µM; in assay [2], 26.5 µM; in assay [3], 70.6 µM; in [4] it was 22.9 µM; in assay [6], 16.2 µM; in assay [7] it was 77.1 µM. Further, the GI50 in assay [8] is 21.8 µM. Further, the TGI in assay [1] was 82.1 µM; in assay [2] it was 84 µM; in [3], above 100 µM; in assay [4], 48.8 µM; in assay [6], 63.9 µM; in assay [7] it was above 100 µM. Moreover, in assay [8], the TGI turned out to be 39.1 µM.

Regarding `c1ccc2c3c([nH]c2c1)C1C2CCCCN2C(c2ccncc2)N1CC3` (stereo unspecified), the TGI in assay [1], in assay [2], in assay [3], in assay [4], in [6] and in [7] was above 100 µM in each case. Moreover, the TGI in assay [8] is above 100 µM.

`OCC(O)C(O)C(O)C(O)c1nn[nH]n1` (stereo unspecified): the TGI in [1], in assay [2], in [3], in [6], in assay [7] and in assay [8] was above 100 µM throughout.

For the molecule `COc1ccc(-c2cc(-c3ccccc3)nc(NCCNc3ccnc4cc(Cl)ccc34)n2)cc1`, the GI50 was 0.591 µM in assay [1]; 1.78 µM in assay [2]; 1.53 µM in assay [10]; 0.435 µM in assay [3]; 1.92 µM in [4]; 1.63 µM in assay [5]. Further, the GI50 in assay [6] is 1.79 µM; in [7], 1.32 µM; in assay [8], 1.79 µM. Also, the TGI in [1] is 2.09 µM; in assay [2] it was 3.34 µM; in assay [10], 3.42 µM; in assay [3], above 100 µM; in assay [4] it was 3.93 µM; in assay [5], 3.16 µM. Besides, the TGI in [6] is 3.59 µM; in assay [7] it was 2.99 µM; in [8], 3.3 µM.

For `Nc1ccc(C(=O)/C=C/c2ccccc2O)cc1`, the TGI in assay [1], in assay [2], in assay [3], in assay [4], in [5] and in assay [6] was above 100 µM each time. Further, the TGI in [7] and in assay [8] was above 100 µM each time.

With `O=C(C(=O)c1cc(Br)ccc1O)c1cc(Br)ccc1O`, the GI50 in [1] is 4.05 µM; in assay [2] it was 4.42 µM; in assay [10], 7.34 µM; in assay [3], 3.15 µM; in assay [4], 2.21 µM; in assay [6], 2.03 µM. Moreover, the TGI is 24.1 µM in [1]; 30.2 µM in assay [2]; above 100 µM in [10]; 53.2 µM in [3]; 8.43 µM in [4]; 7.52 µM in assay [6].

In the case of `COCC1N=C(c2cc(OC)c(OC)c(OC)c2-c2cc3c(cc2[C@H](C)O)OCO3)O[C@H]1c1ccccc1` (stereo partly specified), the TGI in assay [1], in assay [2], in assay [6], in [7] and in assay [8] was above 100 µM in each case.

On to `[Cl-].[Gd+3].[O-]/N=C(\c1ccccc1)c1ccccn1.[O-]/N=C(\c1ccccc1)c1ccccn1.[O-]/N=C(\c1ccccc1)c1ccccn1`, for which the GI50 in [1] is 48.4 µM; in [2] it was 48 µM; in assay [4], 86.5 µM; in assay [5], above 100 µM; in [6] it was 42.7 µM; in [7], 41.7 µM. Also, the GI50 in [8] was 48.9 µM. For the same molecule, the TGI in [1], in assay [2], in [4], in assay [5], in assay [6] and in assay [7] was above 100 µM in each case. Further, in assay [8], the TGI is above 100 µM.

As to `N#CCC1(n2cc(-c3ncnc4[nH]ccc34)cn2)CN(C2CCN(C(=O)c3ccnc(C(F)(F)F)c3F)CC2)C1`, the GI50 in assay [1] was above 100 µM; in assay [2], above 100 µM; in assay [3], 51.4 µM; in assay [4] it was above 100 µM; in assay [5] it was 29.1 µM; in assay [9], 37.5 µM. The GI50 is above 100 µM in [6], 83.5 µM in assay [7] and 65.3 µM in [8]. Moreover, the TGI in assay [1], in assay [2], in [3], in assay [4], in [5] and in [9] was above 100 µM in each case. Moreover, the TGI in assay [6], in [7] and in assay [8] was above 100 µM throughout.

As for `O=C(Nc1ccc(C(F)(F)F)cc1[N+](=O)[O-])c1cccnc1`, the TGI in [1], in assay [2], in [3], in assay [4], in [5] and in assay [9] was above 100 µM each time. Besides, the TGI in assay [6], in assay [7] and in assay [8] was above 100 µM in each case.

As to `CCCCCCCCCCCCCCC(C)CCC(=O)O` (stereo unspecified), the TGI in [4], in assay [5], in assay [6], in assay [7] and in assay [8] was above 100 µM each time.

In the case of `CC(=O)[O-].[Mn+3].[O-]c1ccc(Cl)cc1C=NCCN=Cc1cc(Cl)ccc1[O-]`, the GI50 in assay [1] was above 100 µM; in [2], above 100 µM; in assay [4], above 100 µM; in assay [5], above 100 µM; in [8], 88.5 µM. Besides, the TGI in [1], in assay [2], in [4], in [5] and in assay [8] was above 100 µM in each case.

The values are drawn from PubChem BioAssay (NCI).
